Measured values published in patent publication US12637718B2, “Predictive biomarkers for onvansertib treatment” (Cardiff Oncology, Inc., priority 2021, dated 2026).

Tests used:
[1] = rodent and nonrodent species; cited from earlier work
cancer cell lines = details: cited from earlier work
[2] = test system: disseminated model of AML; details: combination therapy with cytarabine; cited from earlier work
[3] = in vivo; cited from earlier work
PLK1 = PLK1 (Homo sapiens, UniProt P53350); details: among a panel of 296 kinases, including other PLK members; cited from earlier work
xenograft tumor = details: well tolerated doses, oral administration; cited from earlier work
[4] = test system: HT29 human colon adenocarcinoma xenografts; details: combination with irinotecan compared to each agent alone; cited from earlier work
[5] = test system: cell lines, both from solid as well as hematologic tumors; details: large number of cell lines; cited from earlier work
[6] = test system: patients with relapsed or refractory acute myeloid leukemia (R/R AML); assay: Phase 1b/2 study (NCT03303339) of onvansertib in combination with decitabine; type: in vivo; details: oral, days 1 through 5, in combination with decitabine 20 mg/m^2 intravenously
Excerpt: The terms “complete remission” or “complete recovery” as used herein can refer to the absence of extramedullary disease (e.g., leukemic cell aggregates outside of bone marrow), <5% blasts in the bone marrow, absence of circulating blasts and blasts with Auer rods (e.g., inclusion bodies), and platelets≥100×10^9/L and neutrophils≥1.0×10^9/L. The term “complete remission with incomplete hematologic recovery” can refer to all CR criteria except for residual neutropenia (neutrophils<1.0×10^9/L) or thrombocytopenia (platelets<100×10^9/L). The term “morphologic leukemia free state” (MFLS) can refer to <5% blasts in the bone marrow with no blasts with Auer rods and no extramedullary disease. The terms “partial response” or “partial remission” can refer to the presence of all hematologic criteria of CR, decrease of bone marrow blast percentage to 5% to 25%, and/or decrease of pretreatment bone marrow blast percentage by at least 50%. The term “Bone marrow response” (BMR) can refer to at least 50% decrease in bone marrow blast from baseline. In some embodiments, the term “overall response rate” (ORR) can refer to the combined CR, CRi, MFLS, and PR. In some embodiments a combined CR/CRi value is reported. […]

[7] = test system: adult subjects with advanced/metastatic solid tumors; details: cited from earlier work

Sequence of PLK1 (P53350 whole entry): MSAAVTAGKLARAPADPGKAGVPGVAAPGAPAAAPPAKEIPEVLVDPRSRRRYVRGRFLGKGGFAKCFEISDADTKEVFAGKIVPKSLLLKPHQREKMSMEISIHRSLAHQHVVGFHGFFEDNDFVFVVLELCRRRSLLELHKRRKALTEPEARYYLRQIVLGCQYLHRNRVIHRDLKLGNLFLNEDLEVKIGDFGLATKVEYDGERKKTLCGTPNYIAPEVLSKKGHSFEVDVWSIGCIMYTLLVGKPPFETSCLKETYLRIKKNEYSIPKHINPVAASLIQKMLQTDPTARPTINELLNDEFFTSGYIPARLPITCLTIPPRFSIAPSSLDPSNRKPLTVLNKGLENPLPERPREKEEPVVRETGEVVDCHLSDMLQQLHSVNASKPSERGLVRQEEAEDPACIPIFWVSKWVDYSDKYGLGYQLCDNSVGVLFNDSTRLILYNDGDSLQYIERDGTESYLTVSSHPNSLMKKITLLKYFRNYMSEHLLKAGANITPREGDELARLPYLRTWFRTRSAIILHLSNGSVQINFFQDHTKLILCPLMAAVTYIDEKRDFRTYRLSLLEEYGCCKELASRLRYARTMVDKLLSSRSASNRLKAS

For `CN1CCN(c2ccc(OC(F)(F)F)c(Nc3ncc4c(n3)-c3c(c(C(N)=O)nn3CCO)CC4)c2)CC1` [onvansertib, 1-(2-hydroxyethyl)-8-{[5-(4-methylpiperazin-1-yl)-2-(trifluoromethoxy)phenyl]amino}-4,5-dihydro-1H-pyrazolo[4,3-h] quinazoline-3-carboxamide], the oral bioavailability [1] is given as “good oral bioavailability”, the “effect on cell cycle” value (cancer cell lines) is given as “potently causes a mitotic cell-cycle arrest followed by apoptosis” and the survival of animals [2] is given as “prolonged survival”. The half-life [3] was “about 24 hours”, the “specificity for PLK1” value (PLK1) was “high specificity” and the xenograft tumor growth (xenograft tumor) was “inhibits xenograft tumor growth”. The tumor regression [4] was “enhanced tumor regression”, the “potency in proliferation assays” value [5] was “low nanomolar activity” and the maximum tolerated dose [6] was 60 mg/m^2. The “recommended phase 2 dose” value ([7]; advanced/metastatic solid tumors) was 24 mg/m^2, the primary dose-limiting toxicities ([7]; in vivo) was “neutropenia and thrombocytopenia” and the “patients with stable disease” value ([7]; of 16 evaluable patients) was 5 patients. For the same compound, the “recovery of hematologic toxicities” value ([7]; reversible) was ≤ 3 weeks.
